Patent US20210346357A1 (priority 2020, published 2021)
Like-named read-outs stand apart in the source and are kept apart here.

Columns and labels:
[1] = tested on: TSLP-evoked TARC release in human peripheral blood mononuclear cells; assay: Inhibition of TSLP-evoked TARC release in human PBMC; format: cell-based; conditions: PBMC from 3 to 5 donors, TSLP 10 ng/mL, 48 hours, read-out: pIC50 ± st. dev., inhibition of TSLP-evoked TARC release (converted)
[2] = Pharmacokinetics in plasma and lung in mouse; format: in vivo; conditions: single oral aspiration 0.2 mg/mL 50 μL
Protocol: Assay 5: Pharmacokinetics in Plasma and Lung in Mouse
Plasma and lung concentrations of test compounds and ratios thereof were determined in the following manner. BALB/c mice from Charles River Laboratories were used in the assay. Test compounds were individually formulated in 20% propylene glycol in pH 4 citrate buffer at a concentration of 0.2 mg/mL and 50 μL of the dosing solution was introduced into the trachea of a mouse by oral aspiration. At various time points (typically 0.167, 2, 6, 24 hr) post dosing, blood samples were removed via cardiac puncture and intact lungs were excised from the mice. Blood samples were centrifuged (Eppendorf centrifuge, 5804R) for 4 minutes at approximately 12,000 rpm at 4° C. to collect plasma. […] Plasma and lung concentrations of test compound were determined by LC-MS analysis against analytical standards constructed into a standard curve in the test matrix. A lung-to-plasma ratio was determined as the ratio of the lung AUC in μg hr/g to the plasma AUC in μg hr/mL, where AUC is conventionally defined as the area under the curve of test compound concentration vs. time.

[3] = Phase 1 SAD/MAD study of inhaled compound 1 in healthy subjects; format: in vivo, human; conditions: for AUC(0-t): read-out: AUC0-24
Protocol: This is a phase 1, 2-part, double-blind, randomized, placebo controlled, sponsor-open, SAD (Part A) and MAD (Part B). Subjects will participate in only 1 cohort in only 1 study part.
Part A (SAD): three (3) cohorts of 8 healthy subjects (6 active and 2 placebo). In each cohort, subjects received a single inhaled dose of compound 1 or placebo. […] Cardiodynamic monitoring via Holter monitors was conducted pre-dose and for at least 24 hours following dosing on Day 1 in each cohort, with rest periods for cardiodynamic electrocardiogram (ECG) extractions time matched to the PK sampling time points.
Part B (MAD): three (3) cohorts of 10 healthy subjects (8 active and 2 placebo). In each cohort, subjects received inhaled doses once daily (QD) for 7 days. […] Blood samples for PK assessment were also collected pre-dose on the morning of Days 3 through 6. Cardiodynamic monitoring via Holter monitors may be conducted pre-dose on Day 1 and pre-dose and for at least 24 hours following dosing on the morning of Day 7 in each cohort with rest periods for cardiodynamic ECG extractions time matched to the PK sampling time points.
Parts A and B: safety (i.e., physical examinations, vital signs, 12-lead safety ECGs, spirometry, clinical laboratory tests, and adverse events [AEs]) were assessed throughout the study; blood and urine samples were collected for safety assessments. All subjects who received at least one dose of study drug (including subjects who terminated the study early) returned to the CRU 7 (±2) days after the last study drug administration for follow-up procedures, and to determine if any AEs have occurred since the last study visit.
Part B: subjects received inhaled doses QD for 7 days using a nebulizer device.
Morning doses on Days 1 and 7 were administered under fasting conditions due to cardiodynamic monitoring. On all other times, doses were administered at least 30 minutes after completion of a meal or snack. Hour 0 was defined as the beginning of inhalation in each morning dose administration.
AUC0-24, AUC0-∞, Cmax and t1/2 are presented as arithmetic mean (standard deviation). Tmax is presented as median (minimum, maximum).

[4] = healthy subjects, 1 mg to 10 mg
[5] = human, plasma, inhaled or intranasal, 1 mg, healthy subjects, inhaled 1 mg QD, Day 1, mean
[6] = human, plasma, inhaled or intranasal, 1 mg, healthy subjects, inhaled 1 mg QD, Day 7, mean
[7] = human, plasma, inhaled or intranasal, 1 mg, healthy subjects, single inhaled dose 1 mg, mean
[8] = human, plasma, inhaled or intranasal, 3 mg, healthy subjects, inhaled 3 mg QD, Day 1, mean
[9] = human, plasma, inhaled or intranasal, 3 mg, healthy subjects, inhaled 3 mg QD, Day 7, mean
[10] = human, plasma, inhaled or intranasal, 3 mg, healthy subjects, single inhaled dose 3 mg, mean
[11] = human, plasma, inhaled or intranasal, 10 mg, healthy subjects, inhaled 10 mg QD, Day 1, mean
[12] = human, plasma, inhaled or intranasal, 10 mg, healthy subjects, inhaled 10 mg QD, Day 7, mean
[13] = human, plasma, inhaled or intranasal, 10 mg, healthy subjects, single inhaled dose 10 mg, mean

## CCc1cc(O)ccc1-c1ccc2c(-c3nc4c([nH]3)CN(C(C)C)[C@H](C(=O)N3CC(N(C)C)C3)C4)n[nH]c2c1 [Compound 1, (S)-(3-(dimethylamino)azetidin-1-yl)(2-(6-(2-ethyl-4-hydroxyphenyl)-1H-indazol-3-yl)-5-isopropyl-4,5,6,7-tetrahydro-3H-imidazo[4,5-c]pyridin-6-yl)methanone]
[1]
  IC50: 63.1 nM
[2]
  Lung Tissue AUC(0-24): 54.5 µg·h/g
  Plasma AUC(0-24): 943 ng·h/mL
[3]; [4]
  changes in laboratory parameters, vital signs, or ECGs: no clinically relevant changes
  severity of adverse events: mild or moderate
[3]; healthy subjects, inhaled 1 mg QD, Day 1, median
  Tmax: 1.0 h
[3]; healthy subjects, inhaled 1 mg QD, Day 7, median
  Tmax: 1.0 h
[3]; healthy subjects, inhaled 3 mg QD, Day 1, median
  Tmax: 1.0 h
[3]; healthy subjects, inhaled 3 mg QD, Day 7, median
  Tmax: 1.0 h
[3]; healthy subjects, inhaled 10 mg QD, Day 1, median
  Tmax: 1.0 h
[3]; healthy subjects, inhaled 10 mg QD, Day 7, median
  Tmax: 1.0 h
[3]; healthy subjects, single daily doses 1 mg to 10 mg for 7 days
  tolerability: well tolerated
[3]; healthy subjects, single inhaled dose 3 mg, mean
  t1/2: 24.73 h
[3]; [5]
  Cmax: 5.33 ng/mL
  AUC(0-t): 18.4 ng·h/mL
[3]; [6]
  Cmax: 5.7 ng/mL
  AUC(0-t): 21.6 ng·h/mL
[3]; [7]
  Cmax: 5.72 ng/mL
  AUC(0-t): 18.5 ng·h/mL
[3]; human, plasma, inhaled or intranasal, 1 mg, healthy subjects, single inhaled dose 1 mg, mean, read-out: t1/2 (converted)
  half-life: 19.3 h
[3]; [8]
  Cmax: 17.8 ng/mL
  AUC(0-t): 48.1 ng·h/mL
[3]; [9]
  Cmax: 18.2 ng/mL
  AUC(0-t): 52.3 ng·h/mL
[3]; [10]
  Cmax: 14.1 ng/mL
  AUC(0-t): 43.3 ng·h/mL
[3]; human, plasma, inhaled or intranasal, 3 mg, healthy subjects, single inhaled dose 3 mg, mean, read-out: t1/2 (converted)
  half-life: 24.7 h
[3]; [11]
  Cmax: 54.6 ng/mL
  AUC(0-t): 191 ng·h/mL
[3]; [12]
  Cmax: 53.6 ng/mL
  AUC(0-t): 204 ng·h/mL
[3]; [13]
  Cmax: 50.9 ng/mL
  AUC(0-t): 153 ng·h/mL
[3]; human, plasma, inhaled or intranasal, 10 mg, healthy subjects, single inhaled dose 10 mg, mean, read-out: t1/2 (converted)
  half-life: 23.1 h
[3]; human, plasma, inhaled or intranasal, healthy subjects, following single and multiple inhaled doses, read-out: Tmax
  Tmax: ~1 h
[3]; human, plasma, inhaled or intranasal, healthy subjects, following single and multiple inhaled doses, read-out: terminal elimination half-life (converted)
  half-life: ~24 h
[3]; human, plasma, inhaled or intranasal, healthy subjects, single inhaled dose 1 mg, mean
  AUC(0-inf): 20.7 ng·h/mL
[3]; human, plasma, inhaled or intranasal, healthy subjects, single inhaled dose 1 mg, median, read-out: Tmax
  Tmax: 1 h
[3]; human, plasma, inhaled or intranasal, healthy subjects, single inhaled dose 3 mg, mean
  AUC(0-inf): 48.6 ng·h/mL
[3]; human, plasma, inhaled or intranasal, healthy subjects, single inhaled dose 3 mg, median, read-out: Tmax
  Tmax: 1 h
[3]; human, plasma, inhaled or intranasal, healthy subjects, single inhaled dose 10 mg, mean
  AUC(0-inf): 169 ng·h/mL
[3]; human, plasma, inhaled or intranasal, healthy subjects, single inhaled dose 10 mg, median, read-out: Tmax
  Tmax: 1 h
[3]; inhaled administration
  neutrophil and hemoglobin reductions, lipid changes: not observed
